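In this assay, cells in 96-well plates receive the compound at five concentrations for 48 hours. Endpoints are linearly interpolated between the surrounding concentrations. TGI marks complete inhibition of growth.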
Experiments:
Assay in all cases: DTP human tumour cell line panel, 48 h
M14 melanoma = test system: M14 melanoma
A498 renal = test system: A498 renal
PC-3 prostate = test system: PC-3 prostate
MOLT-4 leukemia = test system: MOLT-4 leukemia
NCI-H23 lung = test system: NCI-H23 lung
T-47D breast = test system: T-47D breast
HL-60(TB) leukemia = test system: HL-60(TB) leukemia
SR leukemia = test system: SR leukemia
A549 NSCLC = test system: A549 NSCLC
UO-31 renal = test system: UO-31 renal

Row | Structure (SMILES) | TGI (M14 melanoma) | TGI (A498 renal) | TGI (PC-3 prostate) | TGI (MOLT-4 leukemia) | TGI (NCI-H23 lung) | TGI (T-47D breast) | TGI (HL-60(TB) leukemia) | TGI (SR leukemia) | TGI (A549 NSCLC) | TGI (UO-31 renal)
1 | Cc1ccc(/C=C2\CN(C)CC3=C2OC(N)=C(C#N)C3c2ccc(C)cc2)cc1 (stereo not given) | 43.9 µM | 45.2 µM | > 45.1 µM | > 51 µM | 62.6 µM | 71.2 µM | > 100 µM | > 100 µM | 49.4 µM | 53.4 µM
2 | CCOC(=O)c1c(C)n(Cc2ccccc2)c(=O)c2ccccc2c(=O)c2c(=O)ccc(=O)c1=2 | > 100 µM | > 100 µM | > 100 µM | > 100 µM | > 100 µM | 86.3 µM | > 100 µM | > 100 µM | > 100 µM | 34.7 µM
3 | Cc1c(N2C(=O)/C(=C/C=C/c3ccccc3)N=C2c2ccccc2)c(=O)n(-c2ccccc2)n1C | > 100 µM |  | 76.9 µM | 78.8 µM | 61.1 µM | > 100 µM | 35.7 µM | 47.1 µM | 69.8 µM | 32.6 µM
4 | CC(C)=CCC[C@]1(C)CC[C@]2(C)C3CCC(=C(C)C)[C@@H](CCCO)[C@]3(C)CC[C@@]2(C)C1 (stereo not given in full) | > 100 µM | > 100 µM | > 100 µM | > 100 µM | > 100 µM | 29.6 µM | 84.3 µM |  | > 100 µM | 34 µM
5 | COC(CN(C)C(=O)C(C)NC(=O)c1ccccc1)OC (stereo not given) | > 100 µM |  | > 100 µM | > 100 µM | > 100 µM | > 100 µM |  | > 100 µM | > 100 µM | 
6 | O=c1[nH]c2ccc(C(F)(F)F)cc2nc1-c1ccccc1 | > 100 µM | > 100 µM | > 100 µM | > 100 µM | > 100 µM | > 100 µM | > 100 µM | > 100 µM | > 100 µM | 
7 | CC/C(=N\NC(=O)c1cccnc1)c1ccc2c(c1)OCCO2 | > 100 µM | > 100 µM | > 100 µM | > 100 µM | > 100 µM | > 100 µM | > 100 µM |  | > 100 µM | > 100 µM
8 | CN(C)CCCNc1c(O)c2c(c(O)c1Cl)C(=O)C=CC2=O | 2.9 µM | > 10 µM | 6.83 µM | 5.04 µM | 3.22 µM | 4.28 µM |  |  | 3.52 µM | > 10 µM
9 | CNc1ncnc(Sc2nc(N)nc3nc[nH]c23)c1[N+](=O)[O-] | 19.4 µM | > 100 µM | 22 µM | 4.77 µM | 13.9 µM | 16.8 µM | 6.7 µM |  | > 49.2 µM | 13.9 µM
10 | O=c1c(O)c(-c2ccc(O)cc2O)oc2cc(O)cc(O)c12 | > 100 µM |  | > 100 µM |  | > 100 µM | > 100 µM | > 100 µM |  | > 100 µM | > 100 µM
11 | Clc1ccc(-c2nn3c(CCCCCCCCc4nnc5sc(-c6ccc(Cl)cc6)nn45)nnc3s2)cc1 | 67.5 µM | > 85.9 µM | 69.7 µM | 33.2 µM | > 92.6 µM | 34 µM |  | > 74.3 µM | > 64.5 µM | 29.4 µM
12 | c1ccc(COc2ccc(CC3SCCCS3)cc2)cc1 | > 100 µM |  | > 100 µM | > 100 µM |  | > 100 µM | > 100 µM | > 100 µM | > 100 µM | 
13 | O=C(NN=C1CCN(Cc2ccccc2)CC1)C(O)(c1ccccc1)c1ccccc1 | > 100 µM |  |  | > 100 µM | > 100 µM | > 100 µM | > 100 µM | > 100 µM | > 100 µM | > 100 µM
14 | CC1=C(/C=C/C(C)=C/C=C/C(C)=C/C(=O)OCC2OC(n3cc(F)c(=O)[nH]c3=O)CC2OC(=O)/C=C(C)/C=C/C=C(C)/C=C/C2=C(C)CCCC2(C)C)C(C)(C)CCC1 (stereo not given) | > 48.3 µM |  | > 56.2 µM | > 100 µM | > 90 µM | > 64.7 µM | > 41.9 µM | > 59.6 µM | > 48.5 µM | > 26.3 µM
15 | CCC1(C)C=Cc2c(cc(OC)c3c(=O)c4ccccc4n(C)c23)O1 (stereo not given) | > 10 µM | > 10 µM | > 10 µM | > 10 µM | > 10 µM | > 10 µM |  |  | > 10 µM | 2.39 µM
16 | c1ccc(N=C2c3ccccc3CN2c2ccccc2)cc1 | > 100 µM |  | > 100 µM | > 100 µM | > 100 µM | > 100 µM | > 100 µM | > 100 µM | > 100 µM | > 100 µM
17 | CCOC(=O)/C(C#N)=C/c1ccc2c(-c3c(OCC)ccc4cc(/C=C(\C#N)C(=O)OCC)ccc34)c(OCC)ccc2c1 | 35.7 µM | > 100 µM | > 100 µM | > 100 µM | > 100 µM | > 100 µM | > 100 µM |  | > 100 µM | > 100 µM

Row | Structure (SMILES) | TGI (M14 melanoma) | TGI (A498 renal) | TGI (PC-3 prostate) | TGI (MOLT-4 leukemia) | TGI (NCI-H23 lung) | TGI (T-47D breast) | TGI (HL-60(TB) leukemia) | TGI (SR leukemia) | TGI (A549 NSCLC) | TGI (UO-31 renal)
18 | O=C(Cn1c(=O)ccn(C2OC(CO)C(O)C2F)c1=O)c1ccc(F)cc1 (stereo not given) |  |  | > 100 µM | > 100 µM | > 100 µM | > 100 µM | > 100 µM |  | > 100 µM | > 100 µM
19 | c1ccc2c(c1)ccc1nc(-c3ccc4c(c3)OCO4)c3c(c12)CCCC3 | > 100 µM | 72.9 µM | > 100 µM | > 100 µM | > 100 µM | 94.5 µM |  |  | > 100 µM | 90.8 µM
20 | CCCCCCCCCOC(=O)c1cnc(Cl)cn1 | 36.3 µM |  | 24 µM | > 100 µM | 33 µM | 51.2 µM |  | > 100 µM | 64.8 µM | 34.4 µM
21 | CCOC(=O)C1C(=O)CC(O)(OCC)C(C(=O)OCC)C1c1ccc(OC)cc1 (stereo not given) |  | > 100 µM | > 100 µM | > 100 µM | > 100 µM | > 100 µM | > 100 µM | > 100 µM | > 100 µM | > 100 µM
22 | CC(C(=O)N1C(=O)N(C(=O)C(C)C(O)c2ccccc2)C(c2ccccc2)C1c1ccccc1)C(O)c1ccccc1 (stereo not given) | 33.4 µM |  |  | 11.9 µM | > 100 µM | > 100 µM | 6.79 µM | 14.5 µM | > 100 µM | 41.1 µM
23 | S=c1[nH]nc(COc2ccc3c(c2)CCCC3)n1/N=C/c1ccc(Cl)cc1 | 34.5 µM |  | 31.2 µM | 46.9 µM | 35.9 µM | 30.3 µM | 40.7 µM |  | 35.8 µM | 31.4 µM
24 | C[C@]12CC[C@@H]3c4ccc(O)cc4CC[C@H]3[C@@H]1C/C(=C\c1ccc([N+](=O)[O-])cc1)C2=O | > 100 µM | > 100 µM | > 100 µM | > 100 µM | > 100 µM | > 100 µM |  | > 100 µM | > 100 µM | > 100 µM
25 | CCOC(=O)CN1CCNCCN(CC(=O)OCC)CCNCC1 |  | > 100 µM | > 100 µM | > 100 µM |  | > 100 µM | > 100 µM | > 100 µM | > 100 µM | > 100 µM
26 | COC(=O)c1ccccc1C1CN=NC12Cc1ccc3ccccc3c1C2=O (stereo not given) | > 100 µM | > 100 µM | > 100 µM | > 100 µM |  | 96.9 µM | > 100 µM | > 100 µM | > 100 µM | > 100 µM
27 | Cc1[nH]c2ncn3nc(C(Cl)(Cl)Cl)nc3c2c1Cc1ccccc1 | > 100 µM | > 100 µM | > 100 µM | > 100 µM | > 100 µM | > 100 µM | > 100 µM |  | > 100 µM | 23.3 µM
28 | CC(=O)OCC1OC(On2ccccc2=S)C(OC(C)=O)C(OC(C)=O)C1OC(C)=O (stereo not given) | > 100 µM | > 100 µM | > 100 µM | > 100 µM | > 100 µM | > 100 µM | > 100 µM |  | > 100 µM | > 100 µM
29 | CCOC(=O)c1cc2cc(N(C(C)=O)C(C)=O)ccc2s1 | > 100 µM | 35.1 µM | 46.2 µM | 51 µM | > 100 µM | 81.3 µM | 39.2 µM |  | > 100 µM | > 100 µM
30 | CNC(=S)/C(=N\Nc1nc[nH]c1C(N)=O)C(N)=S | > 100 µM | > 75.6 µM | > 100 µM |  | > 94.7 µM | > 89.3 µM | 7.83 µM | 0.468 µM | > 100 µM | 18.3 µM
31 | O=C(O)CC(C(=O)O)c1ccccc1[N+](=O)[O-] (stereo not given) | > 100 µM | > 100 µM | > 100 µM |  | > 100 µM | > 100 µM | > 100 µM |  | > 100 µM | > 100 µM
32 | COc1ccc2c(c1)C(N)CC2=O (stereo not given) | > 100 µM | > 100 µM | 34.8 µM | > 100 µM | > 100 µM | > 100 µM |  |  | 38.2 µM | > 100 µM
33 | COc1c(CC=C(C)C)c(O)c(C(CC(C)C)c2c(O)c(C(C)=O)c(O)c3c2OC(C(C)(C)O)C3)c(O)c1C(C)=O (stereo not given) | > 12.5 µM | > 12.5 µM |  | > 12.5 µM | > 12.5 µM | 8.36 µM | 6.57 µM | 10.4 µM | > 12.5 µM | > 12.5 µM
34 | NCc1ccc(-c2ccc(-c3ccc(-c4ccc(CN)s4)s3)s2)s1 | > 100 µM | > 100 µM | > 100 µM | > 100 µM | > 100 µM | > 100 µM | > 100 µM |  | > 100 µM | > 100 µM

— PubChem BioAssay (NCI)
